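At the GI50, growth is halved. TGI: total growth inhibition.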
Key:
Test in all cases: growth of human tumour cells (NCI), 384-well format
NCI-H226 lung = tested on: NCI-H226 lung
IGROV1 ovarian = tested on: IGROV1 ovarian
OVCAR-4 ovarian = tested on: OVCAR-4 ovarian
SF-295 CNS = tested on: SF-295 CNS
DU-145 prostate = tested on: DU-145 prostate
OVCAR-8 ovarian = tested on: OVCAR-8 ovarian
ACHN renal = tested on: ACHN renal
U251 glioblastoma = tested on: U251 glioblastoma
SK-MEL-28 melanoma = tested on: SK-MEL-28 melanoma
TK-10 renal = tested on: TK-10 renal
MOLT-4 leukemia = tested on: MOLT-4 leukemia
NCI-H23 lung = tested on: NCI-H23 lung
CCRF-CEM leukemia = tested on: CCRF-CEM leukemia
HT29 colon = tested on: HT29 colon
MCF7 breast = tested on: MCF7 breast
SF-539 CNS = tested on: SF-539 CNS
HCT-116 colon = tested on: HCT-116 colon
OVCAR-5 ovarian = tested on: OVCAR-5 ovarian
MDA-MB-468 breast = tested on: MDA-MB-468 breast
A549 NSCLC = tested on: A549 NSCLC
NCI-H322M lung = tested on: NCI-H322M lung
SN12C renal = tested on: SN12C renal
SF-268 CNS = tested on: SF-268 CNS
RXF 393 renal = tested on: RXF 393 renal
786-0 renal = tested on: 786-0 renal
NCI/ADR-RES ovarian = tested on: NCI/ADR-RES ovarian
COLO 205 colon = tested on: COLO 205 colon
SR leukemia = tested on: SR leukemia
BT-549 breast = tested on: BT-549 breast
LOX IMVI melanoma = tested on: LOX IMVI melanoma
NCI-H460 NSCLC = tested on: NCI-H460 NSCLC
T-47D breast = tested on: T-47D breast
OVCAR-3 ovarian = tested on: OVCAR-3 ovarian
HCT-15 colon = tested on: HCT-15 colon
UO-31 renal = tested on: UO-31 renal
MDA-MB-231 breast = tested on: MDA-MB-231 breast
KM12 colon = tested on: KM12 colon
SK-OV-3 ovarian = tested on: SK-OV-3 ovarian
HOP-92 NSCLC = tested on: HOP-92 NSCLC
HCC-2998 colon = tested on: HCC-2998 colon
EKVX NSCLC = tested on: EKVX NSCLC
K-562 leukemia = tested on: K-562 leukemia
NCI-H522 lung = tested on: NCI-H522 lung
SW-620 colon = tested on: SW-620 colon
HS 578T breast = tested on: HS 578T breast
HL-60(TB) leukemia = tested on: HL-60(TB) leukemia
RPMI-8226 leukemia = tested on: RPMI-8226 leukemia
M14 melanoma = tested on: M14 melanoma

With `CC(F)(F)c1cc(F)ccc1-c1sc2cc(O)ccc2c1Oc1ccc(/C=C/C(=O)O)cc1` the GI50 (NCI-H226 lung) was 20 µM, the TGI (NCI-H226 lung) was 40.3 µM and the GI50 (IGROV1 ovarian) was 18.1 µM. It also gave a TGI (IGROV1 ovarian) of 39.3 µM, a GI50 (OVCAR-4 ovarian) of 19.5 µM and a TGI (OVCAR-4 ovarian) of 74.9 µM. It also gave a GI50 (SF-295 CNS) of 7.72 µM, a TGI (SF-295 CNS) of 21.6 µM and a GI50 (DU-145 prostate) of 17.4 µM. The TGI (DU-145 prostate) was 42.3 µM, the GI50 (OVCAR-8 ovarian) was 25.4 µM and the TGI (OVCAR-8 ovarian) was > 100 µM. The GI50 (ACHN renal) was 17 µM, the TGI (ACHN renal) was 37.8 µM and the GI50 (U251 glioblastoma) was 12.6 µM. For the same molecule, the TGI (U251 glioblastoma) was 25.3 µM, the GI50 (SK-MEL-28 melanoma) was 11.5 µM and the TGI (SK-MEL-28 melanoma) was 32.9 µM. It also gave a GI50 (TK-10 renal) of 22.9 µM, a TGI (TK-10 renal) of 61.6 µM and a GI50 (MOLT-4 leukemia) of 13.3 µM. It also gave a TGI (MOLT-4 leukemia) of 26.1 µM, a GI50 (NCI-H23 lung) of 16.3 µM and a TGI (NCI-H23 lung) of 30.7 µM. The GI50 (CCRF-CEM leukemia) was 12.6 µM, the TGI (CCRF-CEM leukemia) was 25.2 µM and the GI50 (HT29 colon) was 16.2 µM. It also gave a TGI (HT29 colon) of 31.4 µM, a TGI (MCF7 breast) of 14 µM and a GI50 (SF-539 CNS) of 15.8 µM. The TGI (SF-539 CNS) was 29.8 µM, the GI50 (HCT-116 colon) was 15.6 µM and the TGI (HCT-116 colon) was 30.5 µM. It also gave a GI50 (OVCAR-5 ovarian) of 18.2 µM, a TGI (OVCAR-5 ovarian) of 33.6 µM and a GI50 (MDA-MB-468 breast) of 11.7 µM. The TGI (MDA-MB-468 breast) was 26.6 µM, the GI50 (A549 NSCLC) was 13.8 µM and the TGI (A549 NSCLC) was 31.2 µM. It also gave a GI50 (NCI-H322M lung) of 14.4 µM, a TGI (NCI-H322M lung) of 33.6 µM and a GI50 (SN12C renal) of 20.1 µM. The TGI (SN12C renal) was 40.5 µM, the GI50 (SF-268 CNS) was 16.7 µM and the TGI (SF-268 CNS) was 37.2 µM. It also gave a GI50 (RXF 393 renal) of 5 µM, a TGI (RXF 393 renal) of 18.5 µM and a GI50 ([…]-0 renal) of 14.6 µM. For the same molecule, the TGI (786-0 renal) was 33.4 µM, the GI50 (NCI/ADR-RES ovarian) was 16.5 µM and the TGI (NCI/ADR-RES ovarian) was > 100 µM. For the same molecule, the GI50 (COLO 205 colon) was 16.5 µM, the TGI (COLO 205 colon) was 31.7 µM and the GI50 (SR leukemia) was 2.08 µM. For the same molecule, the TGI (SR leukemia) was 4.33 µM, the GI50 (BT-549 breast) was 12.8 µM and the TGI (BT-549 breast) was 26.7 µM. For the same molecule, the GI50 (LOX IMVI melanoma) was 13.5 µM, the TGI (LOX IMVI melanoma) was 26.7 µM and the GI50 (NCI-H460 NSCLC) was 17.6 µM. The TGI (NCI-H460 NSCLC) was 31.8 µM, the GI50 (T-47D breast) was 11.2 µM and the TGI (T-47D breast) was 25.9 µM. For the same molecule, the GI50 (OVCAR-3 ovarian) was 12.6 µM, the TGI (OVCAR-3 ovarian) was 25.8 µM and the GI50 (HCT-15 colon) was 11.3 µM. For the same molecule, the TGI (HCT-15 colon) was 24 µM, the GI50 (UO-31 renal) was 12.4 µM and the TGI (UO-31 renal) was 26.3 µM. The GI50 (MDA-MB-231 breast) was 15.7 µM, the TGI (MDA-MB-231 breast) was 29.5 µM and the GI50 (KM12 colon) was 12.7 µM. It also gave a TGI (KM12 colon) of 25.5 µM, a GI50 (SK-OV-3 ovarian) of 20.2 µM and a TGI (SK-OV-3 ovarian) of 43.5 µM. It also gave a GI50 (HOP-92 NSCLC) of 16.1 µM, a TGI (HOP-92 NSCLC) of 35.3 µM and a GI50 (HCC-2998 colon) of 18.2 µM. For the same molecule, the TGI (HCC-2998 colon) was 32.3 µM, the GI50 (EKVX NSCLC) was 16.9 µM and the TGI (EKVX NSCLC) was 37.9 µM. For the same molecule, the GI50 (K-562 leukemia) was 10.9 µM, the TGI (K-562 leukemia) was 24.4 µM and the GI50 (NCI-H522 lung) was 8.38 µM. For the same molecule, the TGI (NCI-H522 lung) was 21.3 µM, the GI50 (SW-620 colon) was 16.9 µM and the TGI (SW-620 colon) was 30.9 µM. The GI50 (HS 578T breast) was 10.2 µM, the TGI (HS 578T breast) was 22 µM and the GI50 (HL-60(TB) leukemia) was 14.6 µM. For the same molecule, the TGI (HL-60(TB) leukemia) was 27.8 µM, the GI50 (RPMI-8226 leukemia) was 11 µM and the TGI (RPMI-8226 leukemia) was 23.2 µM. The GI50 (M14 melanoma) was 11.6 µM and the TGI (M14 melanoma) was 25.8 µM.

Reference: PubChem BioAssay (NCI)
